Assay results published in patent US10865384B2, “2,4,5-tri-substituted azole-based casein kinase 1 inhibitors as inducers for cardiomyogenesis” (AGENCY FOR SCIENCE, TECHNOLOGY AND RESEARCH, priority 2014, dated 2020).
Like-named read-outs stand apart in the source and are kept apart here.

Experiments:
CK1δ = CK1δ (Homo sapiens (Human), UniProt P48730); assay: LanthaScreen Eu kinase binding assay, CK1δ
CK1ϵ = CK1ϵ (Homo sapiens (Human), UniProt P49674); assay: LanthaScreen Eu kinase binding assay, CK1ϵ
Chain of CK1ϵ (P49674 whole entry): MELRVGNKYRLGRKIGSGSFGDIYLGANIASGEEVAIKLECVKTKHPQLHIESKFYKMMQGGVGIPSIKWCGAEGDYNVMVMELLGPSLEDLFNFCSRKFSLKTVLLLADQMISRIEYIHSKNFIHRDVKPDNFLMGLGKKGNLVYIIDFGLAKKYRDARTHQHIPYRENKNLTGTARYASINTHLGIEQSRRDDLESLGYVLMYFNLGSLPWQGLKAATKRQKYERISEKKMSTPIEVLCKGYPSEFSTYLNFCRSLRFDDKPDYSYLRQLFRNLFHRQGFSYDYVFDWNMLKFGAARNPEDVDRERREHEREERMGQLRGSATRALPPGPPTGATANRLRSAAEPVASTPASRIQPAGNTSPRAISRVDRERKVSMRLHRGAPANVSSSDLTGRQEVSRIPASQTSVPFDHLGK

p38α MAPK = p38α MAPK (Homo sapiens (Human), UniProt Q16539); assay: HitHunter p38 MAP kinase binding assay; details: read-out: p38α MAPK IC50 ± SEM
Chain of p38α MAPK (Q16539 whole entry, looked up): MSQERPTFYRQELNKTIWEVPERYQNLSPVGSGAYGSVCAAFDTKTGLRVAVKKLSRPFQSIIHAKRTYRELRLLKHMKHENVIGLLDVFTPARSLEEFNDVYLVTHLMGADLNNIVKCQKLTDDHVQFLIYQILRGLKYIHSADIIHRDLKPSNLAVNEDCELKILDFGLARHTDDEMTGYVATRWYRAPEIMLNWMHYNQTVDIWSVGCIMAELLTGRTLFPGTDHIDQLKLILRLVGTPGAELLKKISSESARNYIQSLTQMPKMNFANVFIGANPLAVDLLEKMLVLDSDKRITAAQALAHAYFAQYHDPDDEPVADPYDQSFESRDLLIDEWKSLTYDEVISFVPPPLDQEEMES

hESC3 Nkx2.5eGFP/w cells = assay: Differentiation in 96-U bottom ultra-low attachment well plates, GFP area imaging; type: cell-based, human; details: 5 μM; for Average GFP %: after CHIR99021, read on day 14, GFP area over embryoid body size; for Average GFP μm^2 / Average Area μm^2: day 14; for Average Area μm^2: embryoid body size; for Cardiogenic properties: at specific time course (induction day 2 or 3)

Chain of CK1δ (P48730 whole entry): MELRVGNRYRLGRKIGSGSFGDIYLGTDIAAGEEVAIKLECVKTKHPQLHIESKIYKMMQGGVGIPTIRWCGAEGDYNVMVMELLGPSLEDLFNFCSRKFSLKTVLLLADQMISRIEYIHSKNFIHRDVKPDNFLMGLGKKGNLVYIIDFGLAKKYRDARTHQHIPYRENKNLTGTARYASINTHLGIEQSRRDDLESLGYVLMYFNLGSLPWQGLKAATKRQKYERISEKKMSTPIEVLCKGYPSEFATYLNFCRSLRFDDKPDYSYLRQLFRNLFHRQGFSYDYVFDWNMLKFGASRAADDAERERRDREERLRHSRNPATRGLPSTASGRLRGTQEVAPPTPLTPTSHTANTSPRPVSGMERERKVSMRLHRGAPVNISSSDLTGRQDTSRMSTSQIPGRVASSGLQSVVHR

SMILES	Average GFP % (hESC3 Nkx2.5eGFP/w cells; Induction Day 2) [%]	Average GFP μm^2 (hESC3 Nkx2.5eGFP/w cells; Induction Day 2) [μm^2]	Average Area μm^2 (hESC3 Nkx2.5eGFP/w cells; Induction Day 2) [μm^2]	Average GFP % (hESC3 Nkx2.5eGFP/w cells; Induction Day 3) [%]	Average GFP μm^2 (hESC3 Nkx2.5eGFP/w cells; Induction Day 3) [μm^2]	Average Area μm^2 (hESC3 Nkx2.5eGFP/w cells; Induction Day 3) [μm^2]	also measured
Fc1ccc(-c2nc(-c3ccccc3F)[nH]c2C2=CCOCC2)cc1 [IM-20, 5(4)-(3,6-dihydro-2H-pyran-4-yl)-2-(2-fluorophenyl)-4(5)-(4-fluorophenyl)-1H-imidazole]	–	–	–	–	–	–	IC50 (CK1δ; Table 3, read-out: IC50 CK1δ): 1520 nM; IC50 (CK1δ; read-out: CK1δ IC50 ± SEM): 1520 ± 825 nM; IC50 (CK1ϵ; Table 3, read-out: IC50 Ck1ε): 1140 nM; IC50 (CK1ϵ; read-out: CK1ϵ IC50 ± SEM): 1140 ± 287 nM; IC50 (p38α MAPK): 561 ± 141 nM
COc1ccccc1-c1nc(-c2ccc(F)cc2)c(-c2ccncc2)[nH]1 [ZQX-16, 4-[2-(2-methoxyphenyl)-4(5)-(4-fluorophenyl)-1H-imidazol-5(4)-yl]pyridine]	32.8	184.7	576.1	14.5	125.6	950.3	–
COc1cc(O)c(-c2nc(-c3ccc(F)cc3)c(-c3ccncc3)[nH]2)c(OC)c1 [ZQX-26, 2-[4(5)-(4-fluorophenyl)-5(4)-(pyridin-4-yl)-1H-imidazol-2-yl]-3,5-dimethoxyphenol]	30.9	233.9	757.8	8.3	88.2	1152.7	–
Oc1ccc(-c2nc(-c3ccc(F)cc3)c(C3=CCOCC3)[nH]2)cc1 [IM-24, 4-(5(4)-(3,6-dihydro-2H-pyran-4-yl)-4(5)-(4-fluorophenyl)-1H-imidazol-2-yl)phenol]	–	–	–	–	–	–	inhibition at 1 µM (CK1δ): 14%; CK1ϵ inhibition at 1 μM (CK1ϵ): No inhibition at 1 μM; IC50 (p38α MAPK): 149 ± 33 nM
Cc1cccc(-c2nc(-c3ccc4ccccc4c3F)[nH]c2C2=CCOCC2)c1 [IM-03, 5(4)-(3,6-dihydro-2H-pyran-4-yl)-2-(1-fluoronaphthalen-2-yl)-4(5)-(m-tolyl)-1H-imidazole]	–	–	–	–	–	–	CK1δ inhibition at 1 μM (CK1δ; at 1 μM): No inhibition at 1 μM; CK1ϵ inhibition at 1 μM (CK1ϵ): No inhibition at 1 μM; IC50 (p38α MAPK): 262 ± 73 nM
Cc1cccc(-c2nc(-c3ccccc3F)[nH]c2-c2ccncc2)c1 [IM-19]	–	–	–	–	–	–	IC50 (CK1δ; Table 3, read-out: IC50 CK1δ): 454 nM; IC50 (CK1δ; read-out: CK1δ IC50 ± SEM): 454 ± 28 nM; IC50 (CK1ϵ; Table 3, read-out: IC50 Ck1ε): 150 nM; IC50 (CK1ϵ; read-out: CK1ϵ IC50 ± SEM): 150 ± 89 nM; IC50 (p38α MAPK): 4.7 ± 1.2 nM
Fc1ccc(-c2nc(-c3ccccc3Cl)[nH]c2-c2ccncc2)cc1 [ZQX-17, 4-[2-(2-chlorophenyl)-4(5)-(4-fluorophenyl)-1H-imidazol-5(4)-yl]pyridine]	30.4	183.0	586.7	24.6	232.7	971.6	–
Cc1cccc(C)c1-c1nc(-c2ccc(F)cc2)c(-c2ccncc2)[nH]1 [ZQX-28, 4-[2-(2,6-dimethylphenyl)-4(5)-(4-fluorophenyl)-1H-imidazol-5(4)-yl]pyridine]	0.0	0.0	302.4	2.1	6.1	271.7	–
Fc1ccc(-c2nc(-c3c(Cl)cccc3Cl)[nH]c2-c2ccncc2)cc1 [ZQX-15, 4-[2-(2,6-dichlorophenyl)-4(5)-(4-fluorophenyl)-1H-imidazol-5(4)-yl]pyridine]	0.0	0.0	129.4	0.0	0.0	384.0	–
Fc1ccc(-c2nc(-c3ccc4ccccc4c3F)[nH]c2-c2ccncc2)cc1 [IM-29, 4-(2-(1-fluoronaphthalen-2-yl)-4(5)-(4-fluorophenyl)-1H-imidazol-5(4)-yl)pyridine]	–	–	–	–	–	–	IC50 (CK1δ; Table 3, read-out: IC50 CK1δ): 15 nM; IC50 (CK1δ; read-out: CK1δ IC50 ± SEM): 15 ± 3 nM; IC50 (CK1ϵ; read-out: CK1ϵ IC50 ± SEM): 16 ± 3 nM; IC50 (CK1ϵ; read-out: IC50 Ck1ε): 16 nM; IC50 (p38α MAPK): 73 ± 17 nM
Fc1ccc(-c2nc(-c3c(F)cccc3Cl)[nH]c2-c2ccncc2)cc1 [ZQX-19, 4-[2-(2-chloro-6-fluorophenyl)-4(5)-(4-fluorophenyl)-1H-imidazol-5(4)-yl]pyridine]	2.4	46.4	903.3	32.7	511.6	1616.9	Cardiogenic properties (hESC3 Nkx2.5eGFP/w cells): higher cardiogenic properties as SB203580 and IWP-2
COc1cccc(F)c1-c1nc(-c2ccc(F)cc2)c(-c2ccncc2)[nH]1 [ZQX-20, 4-[2-(2-fluoro-6-methoxyphenyl)-4(5)-(4-fluorophenyl)-1H-imidazol-5(4)-yl]pyridine]	26.0	286.8	1145.3	37.3	331.1	996.2	Cardiogenic properties (hESC3 Nkx2.5eGFP/w cells): higher cardiogenic properties as SB203580 and IWP-2
COc1cccc(OC)c1-c1nc(-c2ccc(F)cc2)c(-c2ccncc2)[nH]1 [ZQX-18, 4-[2-(2,6-dimethoxyphenyl)-4(5)-(4-fluorophenyl)-1H-imidazol-5(4)-yl]pyridine]	27.5	207.3	579.4	15.4	143.4	1065.1	–
Fc1ccc(-c2nc(-c3c(F)cccc3I)[nH]c2-c2ccncc2)cc1 [ZQX-30, 4-[2-(2-fluoro-6-iodophenyl)-4(5)-(4-fluorophenyl)-1H-imidazol-5(4)-yl]pyridine]	4.6	60.9	1361.8	12.6	128.3	1142.4	–
O=[N+]([O-])c1cccc(Cl)c1-c1nc(-c2ccc(F)cc2)c(-c2ccncc2)[nH]1 [ZQX-25, 4-[2-(2-chloro-6-nitrophenyl)-4(5)-(4-fluorophenyl)-1H-imidazol-5(4)-yl]pyridine]	0.0	0.0	544.3	15.6	163.6	1105.4	–
Fc1ccc(-c2nc(-c3ccccc3Br)[nH]c2-c2ccncc2)cc1 [ZQX-22, 4-[2-(2-bromophenyl)-4(5)-(4-fluorophenyl)-1H-imidazol-5(4)-yl]pyridine]	26.2	166.5	623.0	24.4	284.4	1165.0	–
O=[N+]([O-])c1ccccc1-c1nc(-c2ccc(F)cc2)c(-c2ccncc2)[nH]1 [ZQX-27, 4-[4(5)-(4-fluorophenyl)-2-(2-nitrophenyl)-1H-imidazol-5(4)-yl]pyridine]	15.1	258.6	1469.4	3.4	57.9	1758.3	–
Cc1ccccc1-c1nc(-c2ccc(F)cc2)c(-c2ccncc2)[nH]1 [ZQX-29, 4-[4(5)-(4-fluorophenyl)-2-(2-methylphenyl)-1H-imidazol-5(4)-yl]pyridine]	28.6	277.1	876.4	2.7	39.9	1296.6	–
Fc1ccc(-c2nc(-c3c(F)cccc3Br)[nH]c2-c2ccncc2)cc1 [ZQX-21, 4-[2-(2-bromo-6-fluorophenyl)-4(5)-(4-fluorophenyl)-1H-imidazol-5(4)-yl]pyridine]	0.0	0.0	1383.8	3.4	16.9	974.3	–
CCc1nc(-c2cccc(C)c2)c(-c2ccnc(NC(=O)c3ccccc3)c2)s1 [TAK 715, reference compound]	–	–	–	–	–	–	IC50 (CK1ϵ; Table 3, read-out: IC50 Ck1ε): 107 nM
O=C(Nc1cccc2cccnc12)c1ccc(N2C(=O)[C@@H]3[C@H](C2=O)[C@@H]2C=C[C@H]3C2)cc1 [IWR-1, reference compound]	41.3	308.9	763.0	51.1	426.3	831.4	–
Fc1ccc(-c2nc(-c3ccccc3)[nH]c2-c2ccncc2)cc1 [ZQX-14, 4-[4(5)-(4-fluorophenyl)-2-phenyl-1H-imidazol-5(4)-yl]pyridine]	42.4	335.6	810.7	5.9	91.6	1474.4	–
Nc1ccccc1-c1nc(-c2ccc(F)cc2)c(-c2ccncc2)[nH]1 [ZQX-31, 4-[2-(2-aminophenyl)-4(5)-(4-fluorophenyl)-1H-imidazol-5(4)-yl]pyridine]	28.9	258.3	891.2	5.1	96.0	1662.3	–
COc1ccc([N+](=O)[O-])cc1-c1nc(-c2ccc(F)cc2)c(-c2ccncc2)[nH]1 [ZQX-32, 4-[2-(2-methoxy-5-nitrophenyl)-4(5)-(4-fluorophenyl)-1H-imidazol-5(4)-yl]pyridine]	32.8	157.6	483.6	4.6	41.0	790.4	–
